In PubChem BioAssay (NCI):
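In this assay, cells in 96-well plates receive the compound at five concentrations for 48 hours. Endpoints are linearly interpolated between the surrounding concentrations. TGI: concentration producing complete growth inhibition.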 Where a SMILES comes first, the peptide text is derived from it. The star is where a group is joined. Fmoc = O=C(OCC1c2ccccc2-c2ccccc21)*; OBn = c1ccc(CO*)cc1; tBu = CC(C)(C)*

Experiments:
Assay in all cases: inhibition of tumour cell growth, NCI panel, 48 h
[1] = tested on: BT-549 breast
[2] = tested on: HS 578T breast
[3] = tested on: CAKI-1 renal
[4] = tested on: COLO 205 colon
[5] = tested on: SW-620 colon
[6] = tested on: NCI-H23 lung
[7] = tested on: A549 NSCLC
[8] = tested on: NCI-H460 lung
[9] = tested on: SK-MEL-2 melanoma
[10] = tested on: SF-268 CNS

| SMILES | TGI [1] | TGI [2] | TGI [3] | TGI [4] | TGI [5] | TGI [6] | TGI [7] | TGI [8] | TGI [9] | TGI [10] |
| --- | --- | --- | --- | --- | --- | --- | --- | --- | --- | --- |
| CC1=NN(c2cc(Cl)c(S(=O)(=O)O)cc2Cl)C2(C1)C(Cl)C(=O)N2c1nc2ccccc2s1 (stereo not given) | > 100 µM | > 100 µM | > 100 µM | > 100 µM | > 100 µM | > 100 µM | > 100 µM | > 100 µM | > 100 µM | > 100 µM |
| O=C(O)C1C2OC(C(Br)C2Br)C1C(=O)O (stereo not given) | > 100 µM | > 100 µM | > 100 µM | > 100 µM | > 100 µM | > 100 µM | > 100 µM | > 100 µM | > 100 µM | > 100 µM |
| CCOC(=O)/C=C(/OCC)[C@@H]1C(C(=O)c2ccc(Cl)cc2)[C@@H]1/C(=C\C(=O)OCC)OCC (stereo not given in full) | > 100 µM | > 100 µM | > 100 µM | 27.4 µM | > 100 µM | 81.8 µM | > 100 µM | > 100 µM | > 100 µM | > 100 µM |
| CC[P+](c1ccccc1)(N(C)C)N(C)C | > 100 µM | > 100 µM | > 100 µM | > 100 µM | > 100 µM | > 100 µM | > 100 µM | > 100 µM | > 100 µM | > 100 µM |
| CCOC(=O)NCC(=O)NCC(=O)NCC(N)=O | > 100 µM | > 100 µM | > 100 µM | > 100 µM | > 100 µM | > 100 µM | > 100 µM |  | > 100 µM | > 100 µM |
| COc1ccccc1-c1cc(=O)c2cccnc2[nH]1 | > 100 µM | > 100 µM | > 100 µM | 96 µM | > 100 µM | > 100 µM | > 100 µM | > 100 µM | > 100 µM | > 100 µM |
| C=C(CCC(=O)N(CCc1c[nH]c2ccccc12)C(=O)c1ccccc1CSCC)C(=O)OC | > 100 µM | > 100 µM | > 100 µM | 54.6 µM | > 100 µM | > 100 µM | > 100 µM | > 100 µM | > 100 µM | > 100 µM |
| O=c1c2ccccc2n2nnc3ccc(NCCNCCO)c1c32 | 10.1 µM | 6.36 µM | 10 µM | 4.09 µM | 6.44 µM | 8.85 µM | 3.5 µM | 2.83 µM | 10.5 µM | 6.46 µM |
| COc1cc(C2C3=C(NC(=O)C2C#N)c2ccc4ccccc4c2OCC3)cc(OC)c1OC (stereo not given) | 42.9 µM | 68.1 µM | 45.7 µM | 33.1 µM | > 100 µM | > 100 µM | > 100 µM | > 100 µM | 59.4 µM | 64.1 µM |
| CCOC(=O)CSc1nc(-c2ccc(Cl)cc2)c(C#N)c(=O)[nH]1 | > 100 µM | > 100 µM | > 100 µM | > 100 µM | > 100 µM | > 100 µM | > 100 µM | > 100 µM | > 100 µM | > 100 µM |
| Cc1cc(C)n(C(=CC(=O)C(Cl)Cl)n2nc(C)cc2C)n1 | 16.1 µM | > 100 µM | 19.1 µM | 40 µM | 40.6 µM | 13.2 µM | 67 µM | 34.1 µM | 25.7 µM | > 100 µM |
| CC(=O)CCN1CC2CN=NC2(C#N)C1 (stereo not given) | > 100 µM | > 95.7 µM |  | > 100 µM | > 55.6 µM | > 100 µM | > 100 µM | > 100 µM | > 100 µM | > 100 µM |
| O=c1[nH]c2ccccc2c(=O)n1/N=C\c1ccccc1O | > 100 µM | > 100 µM | > 100 µM | > 100 µM | > 100 µM | > 100 µM | > 100 µM | > 100 µM | > 100 µM | > 100 µM |
| Clc1ccc(-c2nn3c(COc4ccc(OCc5nnc6sc(-c7ccc(Cl)cc7)nn56)c(Cl)c4)nnc3s2)cc1 | 52.7 µM | > 100 µM | 75.1 µM | > 100 µM | 74.1 µM | 62.3 µM | 90.2 µM | > 100 µM | > 100 µM | 35.6 µM |
| c1ccc(CN2CCC(CNc3ncnc4ccccc34)C2)cc1 (stereo not given) | > 100 µM | > 100 µM | > 100 µM | > 100 µM | > 100 µM | > 100 µM | > 100 µM | > 100 µM | > 100 µM | > 100 µM |
| CC(OC(C)(C)C)C(NC(=O)OCC1c2ccccc2-c2ccccc21)C(=O)NC(Cc1ccccc1)C(=O)OCc1ccccc1 (stereo not given) (Fmoc-Thr(tBu)-Phe-OBn; configuration not given here) | > 100 µM | > 100 µM | > 100 µM | > 100 µM | > 100 µM | > 100 µM | > 100 µM | > 100 µM | > 100 µM | > 100 µM |
| CC(C)(C)c1cc(C(C)(C)C)c2sc(=O)oc2c1O | 32.9 µM | 31.4 µM | 25.3 µM | 33.7 µM |  |  | 27.6 µM | 18.8 µM | 29.1 µM | 26.4 µM |

| SMILES | TGI [1] | TGI [2] | TGI [3] | TGI [4] | TGI [5] | TGI [6] | TGI [7] | TGI [8] | TGI [9] | TGI [10] |
| --- | --- | --- | --- | --- | --- | --- | --- | --- | --- | --- |
| O=C(c1ccccc1)C1C(c2ccccc2[N+](=O)[O-])N1C1CCCCC1 (stereo not given) | 32.3 µM | 49.3 µM | 9.5 µM | 20.4 µM | > 26.6 µM | 37.4 µM | 44.2 µM | 24.8 µM | 18.6 µM | 38.3 µM |
| CCOC1OC(C)(C=C(C#N)C#N)CCC1C (stereo not given) | > 70.3 µM | > 89.1 µM | 96.2 µM | > 100 µM | > 100 µM | > 100 µM | > 100 µM | 98.7 µM | > 100 µM | > 100 µM |
| O=C(CCCCCCCCC(=O)N1C(=O)CC(=O)N(c2ccc(Cl)cc2)C1=S)N1C(=O)CC(=O)N(c2ccc(Cl)cc2)C1=S | > 100 µM | > 100 µM | > 100 µM | > 100 µM | > 100 µM | > 100 µM | > 100 µM | > 100 µM | > 100 µM | > 100 µM |
| CN(Cc1ccccc1)C(=S)S | > 100 µM | > 100 µM | > 100 µM | > 100 µM | > 100 µM | > 100 µM | > 100 µM | > 100 µM | > 100 µM | > 100 µM |
| COc1cc(/C=C2\C(=O)N(c3ccc(Cl)cc3)C(c3ccccc3)S2(=O)=O)cc(OC)c1OC (stereo not given) | > 100 µM | > 100 µM | > 100 µM | > 32.8 µM | > 100 µM | > 100 µM | > 100 µM | > 100 µM | > 100 µM | > 100 µM |
| Cc1c(-c2ccccc2)oc(=O)c2ccccc12 | 39.2 µM | 43.1 µM | 53.9 µM | 33.7 µM |  | 56.6 µM | > 100 µM | > 100 µM | 38.5 µM | 45.1 µM |
| CC(C)(C)C(=O)C(N)C(=O)C(C)(C)C | > 100 µM | > 100 µM | > 100 µM | > 100 µM | > 100 µM |  | > 100 µM | > 100 µM | > 100 µM | > 100 µM |
| CC1=NN(C(=O)CC(=O)Nc2cccc(C)c2)C(=O)C1N=Nc1ccc(C(=O)O)cc1 (stereo not given) | > 100 µM | > 100 µM | > 100 µM | > 100 µM | > 100 µM | > 100 µM | > 100 µM |  | > 100 µM | > 100 µM |
| N#Cc1cc2c(n(C3OC(CO)C(O)C(O)C3O)c1=S)CCC2 (stereo not given) | > 100 µM | > 100 µM | > 100 µM | > 100 µM |  | > 100 µM | > 100 µM | > 100 µM | > 100 µM | > 100 µM |
| O=c1[nH]c(NCCCCCO)nc2nc[nH]c12 | > 100 µM | > 100 µM | > 100 µM | > 100 µM | > 100 µM | > 100 µM |  | > 100 µM | > 100 µM | > 100 µM |
| Cc1cc(S(=O)(=O)NC2=NCc3c(F)cccc3N2)c(S)cc1Cl | > 100 µM | > 100 µM | > 100 µM | > 100 µM | > 100 µM |  | > 100 µM | > 100 µM | > 100 µM | > 100 µM |
| Cc1cc(Br)c(O)c(-c2cscn2)c1 | 24 µM | 52.4 µM | 62.6 µM | 51.8 µM | 31.5 µM | 35.6 µM | 50.4 µM | 49.6 µM | 35.1 µM |  |
| FC(F)(Sc1ncccn1)c1nc2ccccc2o1 | > 100 µM |  | > 100 µM | > 100 µM | > 100 µM | > 100 µM | > 100 µM | > 100 µM | > 100 µM | > 100 µM |
| O=C(Nc1nnc(-c2ccccc2)o1)C(SC(=S)N1CCCC1)c1ccccc1 (stereo not given) | 90 µM | > 100 µM | > 100 µM | > 100 µM | > 100 µM | 79.7 µM | > 100 µM | 62.3 µM | > 100 µM |  |
| CSC1=C(C)C(/C=N/Nc2ccc([N+](=O)[O-])cc2)=C(C)N(c2ccccc2)S1(=O)=O | > 100 µM |  | > 100 µM | > 100 µM | > 100 µM | > 100 µM | > 100 µM | > 100 µM | > 100 µM | > 100 µM |
| Nc1c(-c2ccccc2)c2ccc([N+](=O)[O-])cc2c(=O)n1-c1cccc(C(=O)O)c1 | > 100 µM | > 100 µM | > 100 µM |  | > 100 µM | > 100 µM | > 100 µM | > 100 µM | > 100 µM | > 100 µM |
